Experimental data as given in patent publication US10273233B2, “Inhibitors of influenza viruses replication” (Vertex Pharmaceuticals Incorporated, priority 2015, dated 2019).
Structures can show the parent of a compound that is named as a salt. Where two headings read alike, the source gives them in different places.

What was measured:
influenza A = assay: Influenza A mouse model, Compound (1) with or without oseltamivir; type: in vivo, Mice
Description: Referring to FIG. 32, the potential for a positive therapeutic interaction between Compound (1) and oseltamivir against influenza A was explored in the mouse model. Mice were challenged with influenza A and dosed with vehicle (10 mL/kg 0.5% MC) or Compound (1) at 1, 3, 10, or 30 mg/kg BID alone, or in combination with 10 mg/kg BID oseltamivir. Therapy was started 48 hours post influenza A infection and continued for 10 days. All of the vehicle-treated controls succumbed to disease by study day 8 (Table 21).

Q: What does the source list for `CC(C)(C)[C@@H](CC(=O)O)Nc1nc(-c2c[nH]c3ncc(F)cc23)ncc1F` [FF Lot 7]?
A: Final Form (SGF (pH --1.5), 5 min): H3; concentration, two-stage in vitro dissolution (SGF (pH --1.5), 5 min): 2.053; Final Form (SGF (pH --1.5), 15 min): H3; concentration, two-stage in vitro dissolution (SGF (pH --1.5), 15 min): 1.278; Final Form (SGF (pH --1.5), 30 min): H3; concentration, two-stage in vitro dissolution (SGF (pH --1.5), 30 min): 2.031; Final Form (SGF (pH --1.5), 60 min): H3; concentration, two-stage in vitro dissolution (SGF (pH --1.5), 60 min): 2.40; Final Form (SIF (no pH Adjustment), 75 min): H3; concentration, two-stage in vitro dissolution (SIF (no pH Adjustment), 75 min): 0.163; Final Form (SIF (no pH Adjustment), 90 min): H3; concentration, two-stage in vitro dissolution (SIF (no pH Adjustment), 90 min): 0.148; Final Form (SIF (pH --6.4), 105 min): H3; concentration, two-stage in vitro dissolution (SIF (pH --6.4), 105 min): 1.588; Final Form (SIF (pH --6.4), 120 min): H3; concentration, two-stage in vitro dissolution (SIF (pH --6.4), 120 min): 1.534; Final Form (SIF (pH --6.4), 150 min): H3; concentration, two-stage in vitro dissolution (SIF (pH --6.4), 150 min): 1.058; Final Form (SIF (pH --6.4), 180 min): H3; concentration, two-stage in vitro dissolution (SIF (pH --6.4), 180 min): 0.971; Final Form (SIF (pH --6.4), 240 min): H3; concentration, two-stage in vitro dissolution (SIF (pH --6.4), 240 min): 1.497

Q: Which “Final Form” value (SGF (pH --1.5), 5 min) does the source give for `CC(C)(C)[C@@H](CC(=O)O)Nc1nc(-c2c[nH]c3ncc(F)cc23)ncc1F` [H2SO4 Salt] here?
A: The value was “H2SO4”.

Q: And the “concentration, two-stage in vitro dissolution” value (“concentration, two-stage” below) (SGF (pH --1.5), 5 min)?
A: The value was 0.407.

Q: What about the “Final Form” value (SGF (pH --1.5), 15 min) of the same compound?
A: The value was “H2SO4”.

Q: What about the “concentration, two-stage” value (SGF (pH --1.5), 15 min) of the same compound?
A: The value was 0.407.

Q: And the “Final Form” value (SGF (pH --1.5), 30 min)?
A: The value was “H2SO4”.

Q: What about the “concentration, two-stage” value (SGF (pH --1.5), 30 min) of the same compound?
A: The value was 0.417.

Q: What about the “Final Form” value (SGF (pH --1.5), 60 min) of the same compound?
A: The value was “H2SO4”.

Q: What about the “concentration, two-stage” value (SGF (pH --1.5), 60 min) of the same compound?
A: Its value is 0.399.

Q: What about the “Final Form” value (SIF (no pH Adjustment), 75 min) of the same compound?
A: The value was “H2”.

Q: And the “concentration, two-stage” value (SIF (no pH Adjustment), 75 min)?
A: The value was 0.242.

Q: What about the “Final Form” value (SIF (no pH Adjustment), 90 min) of the same compound?
A: The value was “H2”.

Q: And the “concentration, two-stage” value (SIF (no pH Adjustment), 90 min)?
A: Its value is 0.236.

Q: And the “Final Form” value (SIF (pH --6.4), 105 min)?
A: The value was “H2”.

Q: And the “concentration, two-stage” value (SIF (pH --6.4), 105 min)?
A: Its value is 1.373.

Q: What about the “Final Form” value (SIF (pH --6.4), 120 min) of the same compound?
A: Its value is “H2”.

Q: And the “concentration, two-stage” value (SIF (pH --6.4), 120 min)?
A: Its value is 1.284.

Q: What about the “Final Form” value (SIF (pH --6.4), 150 min) of the same compound?
A: The value was “H2”.

Q: What about the “concentration, two-stage” value (SIF (pH --6.4), 150 min) of the same compound?
A: Its value is 0.396.

Q: And the “Final Form” value (SIF (pH --6.4), 180 min)?
A: Its value is “H2”.

Q: And the “concentration, two-stage” value (SIF (pH --6.4), 180 min)?
A: Its value is 0.652.

Q: And the “Final Form” value (SIF (pH --6.4), 240 min)?
A: Its value is “H2”.

Q: And the “concentration, two-stage” value (SIF (pH --6.4), 240 min)?
A: Its value is 0.789.

Q: For `CC(C)(C)[C@@H](CC(=O)O)Nc1nc(-c2c[nH]c3ncc(F)cc23)ncc1F` [HCl Salt], which “Final Form” value (SGF (pH --1.5), 5 min) is on record?
A: The value was “Amorphous”.

Q: And the “concentration, two-stage” value (SGF (pH --1.5), 5 min)?
A: The value was 14.664.

Q: What about the “Final Form” value (SGF (pH --1.5), 15 min) of the same compound?
A: The value was “Amorphous”.

Q: And the “concentration, two-stage” value (SGF (pH --1.5), 15 min)?
A: The value was 16.565.

Q: What about the “Final Form” value (SGF (pH --1.5), 30 min) of the same compound?
A: Its value is “Amorphous”.

Q: And the “concentration, two-stage” value (SGF (pH --1.5), 30 min)?
A: The value was 14.808.

Q: And the “Final Form” value (SGF (pH --1.5), 60 min)?
A: Its value is “Amorphous”.

Q: And the “concentration, two-stage” value (SGF (pH --1.5), 60 min)?
A: Its value is 15.135.

Q: What about the “Final Form” value (SIF (no pH Adjustment), 75 min) of the same compound?
A: The value was “H2”.

Q: What about the “concentration, two-stage” value (SIF (no pH Adjustment), 75 min) of the same compound?
A: Its value is 0.747.

Q: What about the “Final Form” value (SIF (no pH Adjustment), 90 min) of the same compound?
A: Its value is “H2”.

Q: What about the “concentration, two-stage” value (SIF (no pH Adjustment), 90 min) of the same compound?
A: Its value is 0.964.

Q: What about the “Final Form” value (SIF (pH --6.4), 105 min) of the same compound?
A: Its value is “H2”.

Q: What about the “concentration, two-stage” value (SIF (pH --6.4), 105 min) of the same compound?
A: Its value is 0.474.

Q: And the “Final Form” value (SIF (pH --6.4), 120 min)?
A: Its value is “H2”.

Q: And the “concentration, two-stage” value (SIF (pH --6.4), 120 min)?
A: Its value is 0.477.

Q: And the “Final Form” value (SIF (pH --6.4), 150 min)?
A: Its value is “H2”.

Q: What about the “concentration, two-stage” value (SIF (pH --6.4), 150 min) of the same compound?
A: Its value is 0.749.

Q: And the “Final Form” value (SIF (pH --6.4), 180 min)?
A: The value was “H2”.

Q: And the “concentration, two-stage” value (SIF (pH --6.4), 180 min)?
A: Its value is 0.340.

Q: And the “Final Form” value (SIF (pH --6.4), 240 min)?
A: Its value is “H2”.

Q: And the “concentration, two-stage” value (SIF (pH --6.4), 240 min)?
A: Its value is 0.395.

Q: Which “Percent Survival” value (influenza A; Oseltamivir 10 mg/kg BID alone, started +48 hours after infection, 10 days) does the source give for `CCOC(=O)C1=C[C@@H](OC(CC)CC)[C@H](NC(C)=O)[C@@H](N)C1` [Oseltamivir, oseltamivir, reference compound] here?
A: Its value is 0%.

Q: And the protection from mortality (influenza A; administered alone: Compound (1) 1 mg/kg BID, oseltamivir 10 mg/kg)?
A: The protection from mortality was “failed to protect mice from influenza infection”.
